Experimental data reported in ChEMBL document CHEMBL1909046, “DrugMatrix in vitro pharmacology data”.

What was measured:
[1] = target: Beta-3 adrenergic receptor (Homo sapiens, UniProt P13945); test: DRUGMATRIX: Adrenergic beta3 radioligand binding (ligand: [125I] Cyanopindolol); type: cell membranes, Membrane; settings: hek293; Not Active = under 50% inhibition at 10 µM
[2] = target: T1, Type-2 angiotensin II receptor (Homo sapiens, UniProt P50052); type: cell-based; settings: cho-k1; note: in other assays of this panel Not Active means under 50% inhibition at 10 µM
T1 sequence (P50052 whole entry): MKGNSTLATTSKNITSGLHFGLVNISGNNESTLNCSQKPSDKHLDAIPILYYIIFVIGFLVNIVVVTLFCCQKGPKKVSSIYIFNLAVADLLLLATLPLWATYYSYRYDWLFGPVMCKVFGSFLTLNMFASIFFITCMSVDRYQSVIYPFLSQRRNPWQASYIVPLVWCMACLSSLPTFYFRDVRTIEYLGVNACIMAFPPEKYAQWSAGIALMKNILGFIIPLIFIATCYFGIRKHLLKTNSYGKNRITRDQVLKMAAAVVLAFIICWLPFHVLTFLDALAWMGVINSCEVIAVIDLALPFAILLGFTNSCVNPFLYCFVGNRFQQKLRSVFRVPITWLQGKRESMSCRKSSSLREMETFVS

B2 bradykinin receptor = target: T2, B2 bradykinin receptor (Homo sapiens, UniProt P30411); type: cell membranes, Membrane; settings: chem-1; note: in other assays of this panel Not Active means under 50% inhibition at 10 µM
T2 sequence (P30411 whole entry): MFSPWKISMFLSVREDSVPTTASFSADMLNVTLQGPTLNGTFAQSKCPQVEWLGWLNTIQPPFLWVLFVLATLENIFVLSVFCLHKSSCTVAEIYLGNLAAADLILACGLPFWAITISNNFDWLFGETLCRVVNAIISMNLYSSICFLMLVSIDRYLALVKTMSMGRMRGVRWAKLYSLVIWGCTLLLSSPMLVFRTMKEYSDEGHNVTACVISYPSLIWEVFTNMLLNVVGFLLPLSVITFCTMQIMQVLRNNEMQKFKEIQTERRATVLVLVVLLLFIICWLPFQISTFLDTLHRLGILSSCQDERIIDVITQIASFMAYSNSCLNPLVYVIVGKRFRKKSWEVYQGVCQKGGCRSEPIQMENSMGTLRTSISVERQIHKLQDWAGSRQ

[3] = target: Vascular endothelial growth factor receptor 1 (Homo sapiens, UniProt P17948); type: cell-based; settings: huvec; note: in other assays of this panel Not Active means under 50% inhibition at 10 µM
Sequence of Vascular endothelial growth factor receptor 1 (P17948 whole entry): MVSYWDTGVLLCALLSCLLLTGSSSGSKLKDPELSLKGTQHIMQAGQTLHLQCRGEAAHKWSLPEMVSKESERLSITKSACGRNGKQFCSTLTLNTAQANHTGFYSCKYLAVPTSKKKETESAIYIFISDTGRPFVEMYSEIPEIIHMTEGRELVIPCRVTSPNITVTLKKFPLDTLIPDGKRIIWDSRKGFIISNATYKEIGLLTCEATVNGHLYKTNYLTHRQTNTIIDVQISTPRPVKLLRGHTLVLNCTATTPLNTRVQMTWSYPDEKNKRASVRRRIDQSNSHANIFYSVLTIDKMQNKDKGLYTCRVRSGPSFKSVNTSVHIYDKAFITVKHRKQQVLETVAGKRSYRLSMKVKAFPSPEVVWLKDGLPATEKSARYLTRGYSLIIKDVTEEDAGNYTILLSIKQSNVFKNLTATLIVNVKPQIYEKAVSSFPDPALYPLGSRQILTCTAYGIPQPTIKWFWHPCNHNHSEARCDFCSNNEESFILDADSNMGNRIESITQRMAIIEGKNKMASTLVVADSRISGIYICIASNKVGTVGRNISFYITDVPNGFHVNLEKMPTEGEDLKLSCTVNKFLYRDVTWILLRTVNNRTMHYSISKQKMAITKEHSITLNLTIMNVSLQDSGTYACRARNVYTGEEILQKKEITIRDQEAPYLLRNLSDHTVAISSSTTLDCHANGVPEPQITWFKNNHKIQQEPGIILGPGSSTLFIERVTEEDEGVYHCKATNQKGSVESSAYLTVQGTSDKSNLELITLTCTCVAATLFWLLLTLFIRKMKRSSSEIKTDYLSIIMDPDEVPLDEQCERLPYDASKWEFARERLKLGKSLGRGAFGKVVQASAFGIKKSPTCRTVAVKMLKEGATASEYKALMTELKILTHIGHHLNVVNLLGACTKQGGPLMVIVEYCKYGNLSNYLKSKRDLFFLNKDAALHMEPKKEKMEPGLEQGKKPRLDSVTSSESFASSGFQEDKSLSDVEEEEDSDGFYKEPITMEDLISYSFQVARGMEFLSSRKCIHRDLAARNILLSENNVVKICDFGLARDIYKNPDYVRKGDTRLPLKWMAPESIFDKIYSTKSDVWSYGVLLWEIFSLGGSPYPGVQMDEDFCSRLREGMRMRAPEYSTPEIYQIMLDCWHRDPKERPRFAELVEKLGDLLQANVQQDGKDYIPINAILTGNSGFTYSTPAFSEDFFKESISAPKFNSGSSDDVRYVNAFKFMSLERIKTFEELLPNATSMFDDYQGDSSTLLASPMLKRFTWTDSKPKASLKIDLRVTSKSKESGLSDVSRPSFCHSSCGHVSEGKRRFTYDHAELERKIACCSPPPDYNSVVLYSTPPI

[4] = DRUGMATRIX: Platelet-Derived Growth Factor (PDGF) radioligand binding (ligand: [125I] PDGF); type: cell-based; settings: nih3t3; Not Active = under 50% inhibition at 10 µM
[5] = DRUGMATRIX: Potassium Channel [KATP] radioligand binding (ligand: [3H] Glyburide); type: cell membranes, Membrane; settings: hit-t15; Not Active = under 50% inhibition at 10 µM
Interstitial collagenase = target: T3, Interstitial collagenase (Homo sapiens, UniProt P03956); test: biochemical; type: tissue-based, Rheumatoid synovial fibroblasts;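 note: MMP-1 enzyme inhibition assay using a peptide substrate; in other assays of this panel Not Active means under 50% inhibition at 10 µM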
T3 sequence (P03956 whole entry): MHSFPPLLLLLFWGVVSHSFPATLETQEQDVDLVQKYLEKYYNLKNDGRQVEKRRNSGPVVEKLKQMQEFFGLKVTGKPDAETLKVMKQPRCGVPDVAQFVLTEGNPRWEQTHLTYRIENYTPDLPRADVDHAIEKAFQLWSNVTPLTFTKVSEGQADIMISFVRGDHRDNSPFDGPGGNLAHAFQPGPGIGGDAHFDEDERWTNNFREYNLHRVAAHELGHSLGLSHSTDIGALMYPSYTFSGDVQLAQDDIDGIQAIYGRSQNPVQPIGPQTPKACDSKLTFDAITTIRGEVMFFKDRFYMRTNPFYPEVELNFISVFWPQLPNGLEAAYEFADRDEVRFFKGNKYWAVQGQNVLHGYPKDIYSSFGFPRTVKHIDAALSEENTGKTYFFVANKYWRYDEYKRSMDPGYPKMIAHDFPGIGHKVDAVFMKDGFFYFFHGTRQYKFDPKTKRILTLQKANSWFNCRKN

Cytochrome P450 2A6 = target: T4, Cytochrome P450 2A6 (Homo sapiens, UniProt P11509); settings: bti-tn-5b1-4; note: in other assays of this panel Not Active means under 50% inhibition at 10 µM
T4 sequence (P11509 whole entry): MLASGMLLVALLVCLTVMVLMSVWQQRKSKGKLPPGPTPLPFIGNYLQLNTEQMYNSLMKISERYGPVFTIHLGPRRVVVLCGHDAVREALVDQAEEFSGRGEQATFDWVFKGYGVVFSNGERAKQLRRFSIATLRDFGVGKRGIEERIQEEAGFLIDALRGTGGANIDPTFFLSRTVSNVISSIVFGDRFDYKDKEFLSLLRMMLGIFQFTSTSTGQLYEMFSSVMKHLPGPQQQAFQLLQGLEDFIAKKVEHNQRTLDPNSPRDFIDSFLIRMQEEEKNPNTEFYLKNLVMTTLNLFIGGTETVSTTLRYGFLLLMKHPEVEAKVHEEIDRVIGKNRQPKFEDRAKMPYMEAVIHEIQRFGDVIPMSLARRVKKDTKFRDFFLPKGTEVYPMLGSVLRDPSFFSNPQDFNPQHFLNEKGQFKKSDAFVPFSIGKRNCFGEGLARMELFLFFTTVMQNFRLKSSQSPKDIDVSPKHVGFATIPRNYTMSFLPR

Sequence of Beta-3 adrenergic receptor (P13945 whole entry): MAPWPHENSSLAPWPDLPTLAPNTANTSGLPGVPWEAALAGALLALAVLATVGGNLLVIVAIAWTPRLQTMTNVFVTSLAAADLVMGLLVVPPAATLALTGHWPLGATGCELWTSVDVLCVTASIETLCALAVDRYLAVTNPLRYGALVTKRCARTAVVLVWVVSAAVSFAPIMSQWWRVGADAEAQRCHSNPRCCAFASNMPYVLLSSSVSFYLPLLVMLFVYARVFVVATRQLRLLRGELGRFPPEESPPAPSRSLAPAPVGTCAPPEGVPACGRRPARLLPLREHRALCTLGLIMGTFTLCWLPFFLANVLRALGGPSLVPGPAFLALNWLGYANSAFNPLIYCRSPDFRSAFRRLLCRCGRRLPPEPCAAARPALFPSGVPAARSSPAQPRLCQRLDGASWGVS

CCC1=C[C@@H]2CN(C1)Cc1c([nH]c3ccccc13)[C@@](C(=O)OC)(c1cc3c(cc1OC)N(C)[C@H]1[C@@](O)(C(=O)OC)[C@H](OC(C)=O)[C@]4(CC)C=CCN5CC[C@]31[C@@H]54)C2 [VINORELBINE]
Not Active: IC50 [1] | IC50 [2] | IC50 (B2 bradykinin receptor) | IC50 [3] | IC50 [4] | Ki [4] | IC50 [5] | Ki [5] | IC50 (Interstitial collagenase) | IC50 (Cytochrome P450 2A6) | Ki (Cytochrome P450 2A6)

CCOC(=O)[C@H](CCc1ccccc1)N[C@H]1CCc2ccccc2N(CC(=O)O)C1=O [BENAZEPRIL]
Not Active: IC50 [1] | IC50 [2] | IC50 (B2 bradykinin receptor) | IC50 [3] | IC50 [4] | Ki [4] | IC50 [5] | Ki [5] | IC50 (Interstitial collagenase) | IC50 (Cytochrome P450 2A6) | Ki (Cytochrome P450 2A6)

CCOC(=O)C(C)(C)Oc1ccc(Cl)cc1 [CLOFIBRATE]
Not Active: IC50 [1] | IC50 [2] | IC50 (B2 bradykinin receptor) | IC50 [3] | IC50 [4] | Ki [4] | IC50 [5] | Ki [5] | IC50 (Interstitial collagenase) | IC50 (Cytochrome P450 2A6) | Ki (Cytochrome P450 2A6)

CC(=O)Nc1c(I)c(NC(C)=O)c(I)c(C(=O)O)c1I [DIATRIZOIC ACID]
Not Active: IC50 [1] | IC50 [2] | IC50 (B2 bradykinin receptor) | IC50 [3] | IC50 [4] | Ki [4] | IC50 [5] | Ki [5] | IC50 (Interstitial collagenase) | IC50 (Cytochrome P450 2A6) | Ki (Cytochrome P450 2A6)

CCOC(=O)C1=C(C)NC(C)=C(C(=O)OC)C1c1cccc([N+](=O)[O-])c1 (stereo not drawn) [NITRENDIPINE]
Not Active: IC50 [1] | IC50 [2] | IC50 (B2 bradykinin receptor) | IC50 [3] | IC50 [4] | Ki [4] | IC50 [5] | Ki [5] | IC50 (Interstitial collagenase) | IC50 (Cytochrome P450 2A6) | Ki (Cytochrome P450 2A6)

O=C1CC[C@H](N2C(=O)c3ccccc3C2=O)C(=O)N1
Not Active: IC50 [1] | IC50 [2] | IC50 (B2 bradykinin receptor) | IC50 [3] | IC50 [4] | Ki [4] | IC50 [5] | Ki [5] | IC50 (Interstitial collagenase) | IC50 (Cytochrome P450 2A6) | Ki (Cytochrome P450 2A6)

CC(C)Cc1ccc(C(C)C(=O)O)cc1 (stereo not drawn) [IBUPROFEN]
Not Active: IC50 [1] | IC50 [2] | IC50 (B2 bradykinin receptor) | IC50 [3] | IC50 [4] | Ki [4] | IC50 [5] | Ki [5] | IC50 (Interstitial collagenase) | IC50 (Cytochrome P450 2A6) | Ki (Cytochrome P450 2A6)

CCCCN1CCCCC1C(=O)Nc1c(C)cccc1C.Cl (stereo not drawn) [BUPIVACAINE HYDROCHLORIDE]
Not Active: IC50 [1] | IC50 [2] | IC50 (B2 bradykinin receptor) | IC50 [3] | IC50 [4] | Ki [4] | IC50 [5] | Ki [5] | IC50 (Interstitial collagenase) | IC50 (Cytochrome P450 2A6) | Ki (Cytochrome P450 2A6)
